Laboratory results from patent publication US20080306037A1, “Product for Use in the Prevention and Treatment of Cardiovascular Diseases, Cancer and Chronic Inflammatory Diseases” (priority 2005, published 2008).

System: NF-kB transcription factor
Test: Luciferase trial: inhibition of NF-kB activation by TNFα in 5.1 linfoid cells (Jurkat clone, HIV-LTR luciferase)
Type: cell-based
Conditions: concentration 125 μg/ml, 30 min pre-incubation, TNFα 2 ng/ml 6 hours
Procedure: Cells. A cellular line 5.1, that is a clone derived from Jurkat stably transfected with a plasmid that contains the gene of the luciferase channelled by the HIV-LTR promoter, an exponential growth is maintained in a RPMI 1640 medium supplemented with a 10% of an foetal bovine serum deactivated by heat, 2 mM of L-glutamine, 1 mM HEPES, antibiotics and 200 μg/ml of G418. Luciferase Trial. […] Next, the cells were damaged in 25 mM tris-phosphate pH 7,8, 8 mM MgCl2 1 mM DTT, 1% Triton X-100, y 7% glycerol. The luciferase activity was measured using Autolumat LB 9501 following the instructions of the luciferase trial kit and the protein concentration was measured by the Bradford method. In order eliminate the background noise caused by the lysis solution, this value was deducted in each value of the experiment and the activation was expressed as proportional induction compared to the untreated cells. Cells. The 5.1 cellular line was used, as and how described in example 1. Luciferase Trial. The 5.1 cellular line was pre-incubated for 30 minutes with oleic acid in the concentrations as stated, followed by stimulation with TNFα (2 ng/ml) for 6 hours. The NF-kB transcriptional activity was measured in the same way as in example 1. Cells. The 5.1 cellular line was used, as and how described in example 1. Luciferase Trial. […] The NF-kB transcriptional activity was measured in the same way as in example 1.

CCCCCCCC/C=C\CCCCCCCC(=O)O [oleic acid]
activation index (NF-kB transcription factor activation, luciferase, proportional induction compared to untreated cells): 7-8
